This is an account of results in patent US7700648B2, “Ester compound and its use” (Sumitomo Chemical Company Limited, priority 2004, dated 2010).

For the assay, the system named is common mosquitoes (Culex pipiens pallens). Kind of assay: Knock-down test on common mosquitoes by oil solution spray in a cubic chamber. It is filed as in vivo. The conditions noted are these: 0.7 ml of 0.025% oil solution sprayed in 70 cm cubic chamber; ten female Culex pipiens pallens; counted for 10 minutes. The text has this: A solution of 0.025 part of the present compound (1) dissolved with 10 parts of dichloromethane was mixed with 89.975 parts of deodorized kerosene to give a 0.025% oil solution.
Ten female common mosquitoes (Culex pipiens pallens) were left in a cubic chamber (70 cm at side). Seven-tenths (0.7) ml of the 0.025% oil solution of the present compound (1) was sprayed with a spray gun at a pressure of 8.8×10^4 Pa from a small window on the side of the chamber. Then, the number of the knocked-down insects was counted at times for 10 minutes. The time (KT50) for knocking down half of the tested insects was calculated from the result.
For the comparison, 5-benzyl-3-furylmethyl 1R-trans-2,2-dimethyl-3-((E)-2-cyano-3-ethoxy-3-oxo-1-propenyl)cyclopropanecarboxylate (hereinafter, referred to as the comparison compound) was also subjected to the above mentioned test. The test was done twice for one compound.

Structures are written as SMILES.

With `CCOC(=O)/C(C#N)=C/[C@@H]1[C@@H](C(=O)OCc2coc(Cc3ccccc3)c2)C1(C)C` (relative stereo) [The comparison compound, 5-benzyl-3-furylmethyl 1R-trans-2,2-dimethyl-3-((E)-2-cyano-3-ethoxy-3-oxo-1-propenyl)cyclopropanecarboxylate], the “KT50 (time for knocking down half of the tested insects)” value came to 6.1 min.

Turning to `COC(=O)/C(C#N)=C/C1C(C(=O)OCc2coc(Cc3ccccc3)c2)C1(C)C` (stereo not drawn) [The present compound (1), 5-benzyl-3-furylmethyl 1R-trans-2,2-dimethyl-3-((E)-2-cyano-3-methoxy-3-oxo-1-propenyl)cyclopropan ecarboxylate], the “KT50 (time for knocking down half of the tested insects)” value came to 0.7 min.
